According to patent US20120134978A1, “Cross-Linking of Superoxide Dismutase Monomers” (Brandeis University, priority 2009, published 2012):
“Also recorded” adds a separate entry of the source.

Tests used:
[1] = target: T1, wtSOD1 (Homo sapiens, UniProt P00441); assay: Cross-linking and western blots (SDS-PAGE) of SOD1; format: biochemical; details: for SOD1 dimer formation by cross-linking (western blot): 1:1 or 1:3 molar ratio SOD1 to cross-linker, 1 hour, room temperature
T1 construct: purchased Sigma-Aldrich (St. Louis, Mo.)

[2] = target: T1, wtSOD1; assay: MALDI-TOF MS of cross-linked SOD1; format: biochemical; details: 1:1 molar ratio
[3] = target: T2, G85R SOD1 (Homo sapiens, UniProt P00441, G86R); assay: SOD1 activity assay (NBT gel based); format: biochemical; details: ~42 μM G85R; for SOD1 activity on addition of the substance: excess copper, zinc or cross-linker
T2 construct: made in house; host or cells: S. cerevisiae EGy118ΔSOD1, vector YEp-351
Method: (§1) The DTME cross-linked samples were divided in half, where one half was incubated with 10 mM TCEP and one was not, then analyzed on a 12.5% polyacrylamide gel. The gel was stained using a solution containing 50 mM potassium phosphate, pH 7.8, 1 tablet NBT (10 mg/tablet), and 0.1 mg/mL riboflavin for 45 minutes in the dark. After the 45 minute incubation 1 μL/mL TEMED was added and the gel was exposed to light for 2 minutes. Superoxide radicals create insoluble blue formazon from NBT. SOD1 acitivity is seen as a colorless band since SOD1 scavenges the superoxide, thus inhibiting the blue color formation. Repeated in triplicate.

[4] = target: T3, G93A SOD1 (Homo sapiens, UniProt P00441, G94A); assay: LC-FTMS of cross-linked SOD1 (stoichiometry of cross-linker binding); details: 1:1 molar ratio
T3 construct: made in house; host or cells: S. cerevisiae EGy118ΔSOD1, vector YEp-351
Method: G93A was cross-linked using DMTE or BMOE as previously described at a 1:1 molar ratio (5 μM:5 μM). After one hour, 3% acetonitrile and 1% formic acid was added to the sample and spun at 14,000 RPM for 10 minutes to pellet any precipitated protein. The cross-linked sample was placed in an autosampler and 1 μL of cross-linked sample was aspirated into either a Proxeon 1D HPLC or Eksigent 2D HPLC with the following gradient: 3-50% B for 30 minutes, 50-95% B for 7 minutes, 95% B for 5 minutes, 95-3% B for 1 minute, and 3% B for 15 minutes. Buffer A is HPLC water with 0.1% formic acid and buffer B is 100% acetonitrile, 0.1% formic acid. After liquid chromatography, the sample was ionized using nanospray ionization and analyzed using a […] Bruker Daltonics FTMS. The FTMS was controlled using Apex control software and source parameters were controlled using the Apollo II software. Spectra (monomeric and dimeric G93A) were collected using a skimmer 1 voltage of 35-40V, whereas funnel skimmer dissociation was used to fragment the cross-linked G93A by increasing skimmer one voltage 140 volts. LC-FTMS data of cross-linked and non-cross-linked G93A were analyzed using Data Analysis software (Bruker Daltonics). These experiments were repeated in triplicate. […]

[5] = target: T1, wtSOD1; assay: SOD1 activity assay (NBT gel based); format: biochemical; details: ~42 μM SOD1, 80 μM copper and zinc and/or 42 μM cross-linker
Method: as §1

[6] = target: T3, G93A SOD1; assay: SOD1 activity assay (NBT gel based); format: biochemical; details: ~42 μM SOD1, 80 μM copper and zinc and/or 42 μM cross-linker
Method: as §1

[7] = target: T2, G85R SOD1; assay: Peptide sequencing using LC-FTMS (bottom-up analysis, site of cross-linking); format: binding; details: 1:1 molar ratio, Glu-C digest
[8] = system: human; details: LD50 values in human; cited from earlier work
[9] = target: T3, G93A SOD1; assay: Thermofluorescence stability assay (SYPRO Orange); format: binding; details: 10 μM G93A, 20 μM copper, 20 μM zinc
[10] = target: T2, G85R SOD1; assay: Thermofluorescence stability assay (SYPRO Orange); format: binding; details: 10 μM G85R, 20 μM copper, 20 μM zinc

T2 sequence (P00441 2-154 G86R limits assumed): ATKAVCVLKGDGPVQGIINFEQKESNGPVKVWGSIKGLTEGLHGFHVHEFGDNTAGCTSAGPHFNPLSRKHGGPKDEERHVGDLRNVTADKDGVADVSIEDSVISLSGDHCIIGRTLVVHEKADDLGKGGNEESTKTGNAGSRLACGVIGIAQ
T3 sequence (P00441 2-154 G94A limits assumed): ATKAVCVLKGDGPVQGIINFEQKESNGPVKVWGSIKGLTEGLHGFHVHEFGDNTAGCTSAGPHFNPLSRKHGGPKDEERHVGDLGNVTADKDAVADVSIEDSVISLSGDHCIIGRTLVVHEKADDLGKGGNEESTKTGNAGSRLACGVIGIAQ
T1 sequence (P00441 2-154 limits assumed): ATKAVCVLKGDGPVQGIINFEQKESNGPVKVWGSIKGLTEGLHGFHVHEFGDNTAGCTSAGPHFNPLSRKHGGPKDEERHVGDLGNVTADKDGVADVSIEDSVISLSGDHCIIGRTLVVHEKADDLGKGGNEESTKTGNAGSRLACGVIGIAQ

O=C1C=CC(=O)N1CCOCCOCCN1C(=O)C=CC1=O [BM(PEG)2, 1,8-bis-Maleimidodiethyleneglycol]
SOD1 dimer formation by cross-linking (western blot) [1]: resulted in the stabilization of SOD1 dimer

O=C1C=CC(=O)N1CCSSCCN1C(=O)C=CC1=O [DTME, Dithio-bismaleimidoethane]
state of cross-linked SOD1 dimer in presence of reducing agent (DTT) ([1]; 1:1 molar ratio, SDS PAGE with reducing agent): only monomer was observed; also recorded: returning the dimer to its monomeric form; also recorded: became a monomer in the presence of reducing agent
SOD1 dimer formation by cross-linking (western blot) [1]: resulted in the stabilization of SOD1 dimer; also recorded: resulted in dimeric SOD1
dimer observed in MALDI-TOF spectra of cross-linked SOD1 [2]: The majority of the species observed is dimeric wtSOD1
SOD1 activity in the presence of copper, zinc and cross-linker ([3]; 80 μM copper and zinc and 42 μM cross-linker): even larger increase in activity; also recorded: largest increase in activity
SOD1 activity on addition of the substance [3]: increases
stoichiometry of cross-linker binding [4]: one equivalent of cross-linker produced one equivalent of dimer; also recorded: consistent with the molecular weight of G93A plus one cross-linker

O=C1C=CC(=O)N1CCN1C(=O)C=CC1=O [BMOE, bis(maleimido)ethane]
SOD1 activity on addition of the substance [5]: unchanged
SOD1 activity on addition of the substance [6]: unaffected
SOD1 activity on addition of the substance [3]: increases
stoichiometry of cross-linker binding [4]: consistent with the molecular weight of G93A plus one cross-linker
cross-reactivity with other SOD1 cysteine residues Cys6, Cys57 and Cys146 [7]: relatively low
site of cross-linking [7]: mainly through Cys111

O=C(CI)NCCNC(=O)CI [N,N′-ethylenebis-(iodoacetamide)]
LD50 [8]: 9 mg/kg

O=C1C=CC(=O)N1CC(O)C(O)CN1C(=O)C=CC1=O (stereo not shown) [BMDB, 1,4-bismaleimidyl-2,3-dihydroxybutane]
SOD1 dimer formation by cross-linking (western blot) [1]: resulted in the stabilization of SOD1 dimer

copper and zinc
SOD1 activity on addition of the substance ([5]; zinc): unaffected; also recorded: unchanged
SOD1 activity on addition of the substance [6]: unaffected
SOD1 activity on addition of the substance [3]: increases
effect of excess copper and zinc on stability [9]: no affect; also recorded: little effect
stabilization by excess copper and zinc alone [10]: ~20 °C

C=CS(=O)(=O)CCCCCCS(=O)(=O)C=C [HBVS, 1,6-Hexanol-bis-vinylsulfone]
SOD1 dimer formation by cross-linking (western blot) [1]: did not result in formation of dimeric SOD1; also recorded: did not appear to cross-link SOD1

O=C1C=CC(=O)N1CCN(CCN1C(=O)C=CC1=O)CCN1C(=O)C=CC1=O [TMEA, Tris[2-maleimidoethyl]-amione]
relative cross-linking efficiency (western blot) ([1]; 1:1 or 1:3 cross-linker to protein): most efficient cross-linker
SOD1 dimer formation by cross-linking (western blot) [1]: resulted in the stabilization of SOD1 dimer

NNc1ccccc1 [phenylhydrazine]
LD50 [8]: 80 mg/kg

O=C1C=CC(=O)N1CCCCN1C(=O)C=CC1=O [BMB, 1,4bismaleimidobutane]
SOD1 dimer formation by cross-linking (western blot) [1]: resulted in the stabilization of SOD1 dimer
